Like-named read-outs stand apart in the source and are kept apart here.
Assays:
SH-SY5Y cells [1] = assay: Protection against OGD/R damage in SH-SY5Y cells (CCK-8); assay type: cell-based, human
Description: To mimic ischemic conditions in vitro, cells were washed with PBS and then cultured for 2.5 h at 37 °C in glucose-free medium under anaerobic conditions (5% hydrogen, 90% nitrogen, and 5% carbon dioxide). OGD process was terminated by transferring cells back to normal glucose-containing medium under normoxic conditions (5% CO₂, 37 °C) and maintained for 24 h.
In the administration group, cells were exposed for 12 h with Cpd.51 prior to OGD. OGD lasted for 2.5 h and the reperfusion lasted for 24 h before the experiment was concluded. Subsequently, cell viability was determined using the cell counting kit-8 (CCK-8, C0039, Beyotime, China). In the experiment to explore the treatment time window, the only difference was the timing of the Cpd.51 treatment, while all other procedures remained unchanged.
Hek-293T cells were transiently transfected, using Lipofectamine™ 3000 and P3000™ reagent (L3000075, Invitrogen, USA) according to the manufacturer's instructions, with the wild-type, point-mutant and double-mutations constructs of Keap1, DHRS3 or Nrf2 (each at 0.5 ng/μL), respectively. Similarly, to promote the expression of the DHRS3 gene, a DHRS3 expression plasmids (0.5 ng/μL) was transfected as well as the corresponding negative controls into SH-SY5Y cells for 6 h, and further cultured with fresh medium for 18 h according to the manufacturer's instructions.

[2] = Acute (7-day i.v.) toxicity in rats; assay type: in vivo, rat; conditions: 10 mg/kg i.v. daily for 7 days
Description: Cpd.51 was dissolved in solvent (10% DMSO, 10% Solutol HS-15 and 80% saline). It was injected (i.v.) at dose of 3 mg/kg or 5 mg/kg in a 0.5 mL volume. The Sham group and Vehicle group were treated simultaneously with an equal volume of solvent. In the experiment to explore the treatment time window, we merely administered the drug to the rats at different time points, while all other procedures remained unchanged. In the short-term toxicity study, 10 mg/kg Cpd.51 and Oma were administered via tail vein injection at 0.5 mL daily for 7 consecutive days.
Glutamic-pyruvic transaminase (GPT) kits (ml092635, mlbio, China), glutamic oxaloacetic transaminase (GOT) kits (ml092714, mlbio, China), creatinine (CRE) kits (M12C4L, mlbio, China) and blood urea nitrogen (BUN) kits (ml076479, China) were used to detect the serum of rats in order to evaluate liver and kidney functions. Male and female rats were randomly divided into Sham group, Cpd.51 group and Oma group. Doses were administered once daily at 10 mg/kg and body weights were recorded accordingly. Sham groups were given the same volume of solvent. After 7 days, the […] were sacrificed, serum was collected and tested according to the instructions.

[3] = set-up: method as in PMID 37155124; conditions: clinical; cited from earlier work
SH-SY5Y cells [4] = assay: Cytotoxicity in SH-SY5Y cells, 24 h incubation; assay type: cell-based; conditions: Homo sapiens
tMCAO rats = assay: Long-term recovery after tMCAO (survival, body weight, behaviour); assay type: in vivo, rat; conditions: 5 mg/kg tail vein injection for 7 d
Description: To assess the degree of neurological impairment, we conducted modified Neurological Severity Score (mNSS) according to previous experience. The investigator was blinded to the grouping situation during the whole experiment.
On postoperative day 3 two wooden boards of identical size were joined at a 30° angle, with a narrow gap retained at the junction. The rat was positioned facing the apex of the angle. When it advanced into the deeper part of the angle, bilateral whisker contact with the boards triggered a characteristic rearing response, followed by a turn to face the opposite direction. Each rat underwent 15 trials, and the number of right turns was recorded. The higher the right-turn ratio, the more severe the injury.
Rats were placed on a horizontal, stainless steel wire grid. The grid was then smoothly rotated 180 degrees to an inverted position and held stationary at a height of 0.8 m. A stopwatch was started immediately upon inversion to measure the latency to fall. The test was terminated if the animal remained on the grid for 60 s, at which point it was gently returned to its home cage, and a score of 60 s was recorded.
The Y-maze apparatus consisted of three symmetrically arranged enclosed arms (typically labeled Arms A, B, and C), each positioned 120° apart. At the start of each trial, the subject was placed in Arm A and allowed to move freely through the maze for 8 min. Spatial working memory was evaluated by calculating the spontaneous alternation rate, using the following formula:
Following a 2 h acclimation period, the rats were within an open field cubic box (100 × 100 × 40 cm^3) and allowed 5 min of unrestricted movement. The travel distance and the time spent in the central area were recorded.
The spatial learning and memory of rats were assessed using the Morris water maze (MWM) from post-operative days 23 to 26. Over four consecutive days, animals underwent training trials in which they were required to locate a submerged escape platform within 60 s. Each rat was gently placed into the water facing the pool wall. If the rat found the platform and remained on it for 10 s, the escape latency was recorded. If the platform was not found within 60 s, the rat was guided onto it and allowed to stay for 10 s, and the latency was recorded as 60 s. Following the training phase, the platform was removed, and a visual spatial memory test lasting for 60 s was conducted to assess the retention of memory. The number of platform-location crossings and the time spent in the target quadrant were recorded and analyzed.

[5] = target: T1, Human recombinant Keap1 proteins (Homo sapiens, UniProt Q14145); assay: SPR binding to full-length Keap1; set-up: purchased Sinobiological ME18DE0203; conditions: read-out: KD of Oma (Keap1)
T1 sequence (Q14145 whole entry, the tested form may be a part): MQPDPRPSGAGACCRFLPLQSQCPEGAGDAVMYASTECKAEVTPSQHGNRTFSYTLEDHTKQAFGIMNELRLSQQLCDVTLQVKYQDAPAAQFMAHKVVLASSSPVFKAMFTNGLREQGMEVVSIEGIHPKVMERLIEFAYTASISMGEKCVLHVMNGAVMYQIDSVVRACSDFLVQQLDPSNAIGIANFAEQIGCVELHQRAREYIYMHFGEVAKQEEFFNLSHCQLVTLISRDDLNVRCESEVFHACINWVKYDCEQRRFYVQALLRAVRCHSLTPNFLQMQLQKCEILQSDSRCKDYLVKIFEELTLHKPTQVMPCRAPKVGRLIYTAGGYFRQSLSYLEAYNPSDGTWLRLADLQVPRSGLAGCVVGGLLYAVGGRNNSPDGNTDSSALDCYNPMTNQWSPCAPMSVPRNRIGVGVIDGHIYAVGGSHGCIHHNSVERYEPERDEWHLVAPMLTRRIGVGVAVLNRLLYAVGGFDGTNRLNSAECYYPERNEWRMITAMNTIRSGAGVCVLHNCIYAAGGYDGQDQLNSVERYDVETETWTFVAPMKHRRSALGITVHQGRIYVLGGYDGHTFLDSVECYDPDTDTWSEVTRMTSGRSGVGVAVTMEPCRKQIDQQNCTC
Description: The binding affinity of Cpd.51 or Oma to Keap1 proteins were measured using a Biacore T200. The overall experimental procedures were based on previous reports, [28]. Human recombinant Keap1 proteins or truncated form of Keap1 (residues 48-180 and residues 48-149) were captured on a CM5 chip by a standard amine coupling procedure. Binding sensorgrams were recorded by injecting various concentrations of Cpd.51 over the immobilized proteins surface. The dissociation constant was obtained by globally fitting the data (to the 1:1 Langmuir binding model using the Biacore Insight evaluation software (Cytiva, Marlborough, MA, USA). Affinity tests for Cpd.51 and DHRS3 were also performed using the aforementioned method.

[6] = cited from earlier work
[7] = 28-day long-term toxicity in rats (intragastric); assay type: in vivo, rat; conditions: 28 days intragastric
Description: During the long-term toxicity test, rats in each group received daily intragastric administration for 28 consecutive days. Animals in the Sham group were administered a mixture of 99% sesame oil and 1% DMSO at a volume of 0.5 mL per rat. Rats in the remaining groups were intragastrically administered varying doses of the respective therapeutic agents.
During the 28-day long-term toxicity study, rats were euthanized following the completion of continuous intragastric administration. Livers and kidneys from both male and female rats in each group were photographed for macroscopic examination, and serum samples were collected for subsequent kit-based analysis. The liver/kidney index was obtained by dividing the weight of the liver/kidney by the body weight.

[8] = set-up: method as in PMID 40455368; conditions: 28-day, oral 10 mg/kg, rats; cited from earlier work
[9] = tested on: ARE-luciferase reporter (Nrf2 activation), Hek-293T cells; assay: ARE-luciferase reporter gene assay; assay type: cell-based; conditions: Homo sapiens; Hek-293T cells, 12 h after drug treatment
Description: The Hek-293T cells were cultured in 96-well plates 24 h before transfection with ARE-luciferase reporter plasmid (11548ES03, Yeasen, China) for 48 h according to the manufacturer's instructions. The Firefly luciferase activities was carried out 12 h after the drug treatment, as described by the manufacturer (11412ES81, Yeasen, China).

[10] = target: T1, Human recombinant Keap1 proteins; conditions: cited from earlier work
[11] = Oma 10 mg/kg, Cpd.51 1, 3 and 10 mg/kg

Sequence of Nrf2 (Q16236 whole entry): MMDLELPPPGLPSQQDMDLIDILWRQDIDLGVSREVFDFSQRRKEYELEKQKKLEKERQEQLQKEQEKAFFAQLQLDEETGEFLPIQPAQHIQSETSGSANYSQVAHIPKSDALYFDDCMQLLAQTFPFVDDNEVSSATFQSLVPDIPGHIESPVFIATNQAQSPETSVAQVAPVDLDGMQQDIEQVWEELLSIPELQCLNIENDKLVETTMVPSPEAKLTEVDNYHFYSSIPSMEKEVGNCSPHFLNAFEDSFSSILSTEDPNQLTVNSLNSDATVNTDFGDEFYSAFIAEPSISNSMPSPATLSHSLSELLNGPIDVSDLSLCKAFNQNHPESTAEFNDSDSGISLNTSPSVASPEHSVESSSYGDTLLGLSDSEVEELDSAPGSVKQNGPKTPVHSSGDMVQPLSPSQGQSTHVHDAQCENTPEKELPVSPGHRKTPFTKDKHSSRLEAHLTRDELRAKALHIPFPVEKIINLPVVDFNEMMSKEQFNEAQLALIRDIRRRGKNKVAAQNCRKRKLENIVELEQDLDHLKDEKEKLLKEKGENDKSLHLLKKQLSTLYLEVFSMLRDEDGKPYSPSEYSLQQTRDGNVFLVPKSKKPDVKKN

| Compound | OGD/R damage when administered at different time points (SH-SY5Y cells [1]; 100 nM, CCK-8) | EC50 (SH-SY5Y cells [1]; Homo sapiens, SH-SY5Y, read-out: EC50 against OGD/R damage) [nM] | liver hypertrophy, serum GPT and GOT [2] | serum CRE and BUN [2] | weight gain [2] | apparent volume of distribution (Vd) [3] [L/kg] | terminal half-life (T1/2) [3] [h] | IC50 (SH-SY5Y cells [4]) [nM] | body weight and mNSS scores, long-term (tMCAO rats) | corner, inverted screen, Y maze and open field tests (tMCAO rats; vs model group) | Kd [5] [nM] | patients developing liver injury during clinical trials [6] | liver and kidney indices ([7]; 10 mg/kg, female and male rats) | body weight [7, 11] | plasma markers of hepatic and renal injury [7, 11] | hepatotoxicity (liver weight, plasma ALT) [8] | EC50 [9] [nM] | Kd [10] [nM] |
| --- | --- | --- | --- | --- | --- | --- | --- | --- | --- | --- | --- | --- | --- | --- | --- | --- | --- | --- |
| CC1(C)CC[C@]2(NC(=O)C(C)(F)F)CC[C@]3(C)[C@H](C(=O)C=C4[C@@]5(C)C=C(C#N)C(=O)C(C)(C)[C@@H]5CC[C@]43C)[C@@H]2C1 [Oma, Omaveloxolone, reference compound] | consistently alleviated OGD/R damage | 80.8 | marked liver hypertrophy and elevated serum levels of glutamic-pyruvic transaminase (GPT) and glutamic oxaloacetic transaminase (GOT) | increased serum creatinine (CRE) and blood urea nitrogen (BUN) levels | suppressed weight gain | ~105 | ~57 | 758 | significantly improved body weight and mNSS scores | exhibited improvements in neurological deficits, motor abilities, and spatial working and reference memory | 21.7 | ~ 37% | markedly increased the liver and kidney indices | neither compound significantly affected body weight | significantly elevated plasma markers of hepatic and renal injury | induced hepatotoxicity | 104 | – |
| Nrf2 (from UniProt Q16236) | – | – | – | – | – | – | – | – | – | – | – | – | – | – | – | – | – | 19 |
